Experimental data as given in publication PMC7160362, “A Polyamine-Based Dinitro-Naphthalimide Conjugate as Substrates for Polyamine Transporters Preferentially Accumulates in Cancer Cells and Minimizes Side Effects in vitro and in vivo” (Frontiers in Chemistry, 2020).

What was measured:
Type in all cases: cell-based
[1] = system: Snu-739 cells (hepatic carcinoma); assay: MTT cytotoxicity assay
Protocol: (§1) We incubated hepatic carcinoma (Snu-368 and Snu-739), breast carcinoma (MDA-MB-231 and MCF-7), cisplatin-sensitive lung cancer cells A549, and cisplatin-resistant lung cancer cells A549cisR in 96-well plates in a 5% CO2 atmosphere at 37°C for 24 h (5,000 cells/well). After adding drugs in freshly prepared culture medium (100 μl) and incubating for another 48 h, we added 20 μl MTT (5 mg/ml) and incubated for another 3 h. At last, after the medium was removed, 150 μl DMSO was added. By using a Bio-Rad 680 microplate reader, the absorbance was measured at 570 nm and the IC50 values were calculated using the GraphPad Prism software based on three parallel experiments.
(§2) In vitro assays were firstly conducted to evaluate the inhibitory effect of polyamine-based naphthalimide conjugates 5a-5c, 7a-7b, and 11a-11b on six cancer cell lines, namely, Snu-368 and Sun-739 (hepatoma cell line), MCF-7 (breast carcinoma), MDA-MB-231 (triple negative breast cancer), cisplatin-sensitive lung cancer A549, and resistant A549cisR cells by using traditional MTT tests. Two classic antitumor agents in clinic trials, amonafide and cisplatin, were chosen as the reference drugs (Table 1). The preliminary structure–activity relationship (SAR) can be obtained from the in vitro biological results.

[2] = system: MCF-7 cells (breast carcinoma); assay: MTT cytotoxicity assay
Protocol: as §1, §2

[3] = system: cisplatin-resistant lung cancer cells A549cisR; assay: MTT cytotoxicity assay
Protocol: as §1, §2

[4] = system: Snu-368 cells (hepatic carcinoma); assay: MTT cytotoxicity assay
Protocol: as §1, §2

[5] = system: cisplatin-sensitive lung cancer cells A549; assay: MTT cytotoxicity assay; settings: A549
Protocol: as §1, §2

[6] = system: MDA-MB-231 cells (triple negative breast cancer); assay: MTT cytotoxicity assay; settings: MDA-MB-231
Protocol: as §1, §2

p53 in Snu-739 cells = assay: Western blot of p53; settings: Snu-739, 24 h
Protocol: We performed western blot analysis to determine the contents of p53 after treatment by 5c for 5, 10, and 15 μM for 24 h. After washing three times with PBS, we harvested and centrifuged the cells, which were lysed with a RIPA buffer (Beyotime, China). The total contents of protein were determined by a BCA assay kit (Beyotime, China). At 100°C for 10 min, the total lysates were denatured in a 5 × SDS-loading buffer. Equal amounts of total proteins were separated by 12% SDS-PAGE. Dried skimmed milk (5%) was used to block the separated protein in Tris Buffered Saline Tween (TBST) at room temperature for 1 h. And then the corresponding primary antibodies and the appropriate HRP-conjugated secondary antibody were used to incubate with the separated protein. By ECL plus reagents (Beyotime, Jiangsu, China), we detected the expression of p53.

Question: For O=C1c2cc([N+](=O)[O-])cc3cc([N+](=O)[O-])cc(c23)C(=O)N1CCCCNCCCNC1CC1 [5c], which IC50 ([1]; SNU-739, MTT, 48 h) is on record?
Answer: The IC50 was 0.76 ± 0.05 µM.

Question: And the “FI (fold increase) IC50(amonafide)/IC50(5c)” value ([1]; Snu-739)?
Answer: Its value is 17.08.

Question: What about the “FI (fold increase) IC50(cisplatin)/IC50(5c)” value ([1]; Snu-739) of the same molecule?
Answer: The value was 13.18.

Question: And the IC50 ([2]; Homo sapiens, MCF7, MTT, 48 h)?
Answer: The IC50 was 1.35 ± 0.15 µM.

Question: And the “FI (fold increase) IC50(amonafide)/IC50(5c)” value ([2]; MCF-7)?
Answer: The value was 4.36.

Question: And the “FI (fold increase) IC50(cisplatin)/IC50(5c)” value ([2]; MCF-7)?
Answer: The value was 7.11.

Question: What about the “FI (fold increase) IC50(amonafide)/IC50(5c)” value ([3]; A549cisR) of the same molecule?
Answer: The value was 13.23.

Question: What about the “FI (fold increase) IC50(cisplatin)/IC50(5c)” value ([3]; A549cisR) of the same molecule?
Answer: The value was 48.63.

Question: And the “RF (resistance factor)” value ([3]; IC50 in A549cisR cells/IC50 in A549 cells)?
Answer: The value was 0.43.

Question: What about the IC50 ([3]; MTT, 48 h) of the same molecule?
Answer: Its IC50 is 0.83 ± 0.08 µM.

Question: And the “FI (fold increase) amonafide/5c in RF column” value ([3]; ratio of RF values)?
Answer: Its value is 3.70.

Question: And the IC50 ([4]; MTT, 48 h)?
Answer: The IC50 was 1.09 ± 0.1 µM.

Question: And the “FI (fold increase) IC50(amonafide)/IC50(5c)” value ([4]; Snu-368)?
Answer: Its value is 12.83.

Question: What about the “FI (fold increase) IC50(cisplatin)/IC50(5c)” value ([4]; Snu-368) of the same molecule?
Answer: The value was 15.02.

Question: What about the “FI (fold increase) IC50(amonafide)/IC50(5c)” value [5] of the same molecule?
Answer: The value was 3.59.

Question: And the “FI (fold increase) IC50(cisplatin)/IC50(5c)” value [5]?
Answer: The value was 5.73.

Question: And the IC50 ([5]; Homo sapiens, MTT, 48 h)?
Answer: The IC50 was 1.92 ± 0.23 µM.

Question: And the IC50 ([6]; Homo sapiens, MTT, 48 h)?
Answer: Its IC50 is 1.33 ± 0.12 µM.

Question: And the “FI (fold increase) IC50(amonafide)/IC50(5c)” value [6]?
Answer: Its value is 11.20.

Question: What about the “FI (fold increase) IC50(cisplatin)/IC50(5c)” value [6] of the same molecule?
Answer: The value was 12.02.

Question: And the p53 protein expression (p53 in Snu-739 cells)?
Answer: Its p53 protein expression is “upregulated”.
